Data taken from patent US20020193564A1, “Oligomeric chaperone proteins” (priority 1999, published 2002).

Columns and labels:
[1] = tested on: mutant Huntingdon exon 1-expressing PC12 and SH-SY5Y cells; conditions: overexpression; cited from earlier work
COS-7 cells = conditions: overexpression; cited from earlier work
[2] = tested on: COS-7, PC12, and SH-SY5Y cells; conditions: treatment with proteasome inhibitor; cited from earlier work
GroES = GroES (Escherichia coli, UniProt P0A6F9); conditions: ELISA, FIG. 5a
GroES, sequence (P0A6F9 whole entry): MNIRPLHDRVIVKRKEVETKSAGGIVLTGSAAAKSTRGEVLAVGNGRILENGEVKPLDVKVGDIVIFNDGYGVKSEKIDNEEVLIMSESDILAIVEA
Procedure: GroES Binding and Competition Assays by ELISA (Enzyme-Linked Immunosorbant Assay).
Proteins were coated onto plastic microtitre plates (Maxisorb, Nunc) overnight at 4° C. at a concentration of 10 μg/mL in carbonate buffer (50 mM NaHCO3, pH 9.6). Plates were blocked for 1 hour at 25° C. with 2% Marvel in PBS (phosphate buffered saline: 25 mM NaH2PO4, 125 mM NaCl, pH 7.0). GroES, at 10 μg/mL in 100 μL of 10 mM Tris-HCl, 200 mM KCl, pH 7.4, were bound at 25° C. for 1 hour. Bound GroES were detected with rabbit anti-GroES antibodies (Sigma) followed by anti-rabbit immunoglobulins horseradish peroxidase conjugated antibodies (Sigma).

bacteriophage λ = assay: Growth of bacteriophage λ in transformed groEL strains; type: cell-based, bacteriophage λ (b2cI) in E. coli; conditions: SV1 (groE^+)
Text: The E. Coli strains used in this study were: C41(DE3), a mutant of BL21(DE3) capable of expressing toxic genes (Miroux, B. & Walker, J. E. (1996) J. Mol. Biol. 260, 289-298); SV2 (B178groEL44), SV3 (B178groEL59) and SV6 (B178groEL673): isogenic strains carrying temperature-sensitive alleles of groEL; SV1(=B178) (Georgopoulos, C., Hendrix, R. W., Casjens, S. R. & Kaiser, A. D. (1973) J. Mol. Biol. 76, 45-60), A190 (ΔgroEL::kan^R) [pBAD-EL] (Ivic, A., Olden, D., Wallington, E. J. & Lund, P. A. (1997) Gene 194, 1-8), and TG1 (Gibson, T. J. (1984) Ph.D. thesis, University of Cambridge, U.K). Bacteriophage λb2cI (Zeilstra-Ryalls, J., Fayet, O., Baird, L. & Georgopoulos, C. (1993) J. Bacteriol. 175, 1134-1143) was used according to standard methods (Arber, W., Enquist, L., Hohn, B., Murray, N. E. & Murray, K. (1983) in Lambda II., ed. R. W. Hendrix, J. W. r., F. W. Stahl and R. A. Weisberg (Cold Spring Harbor Laboratory, Cold Spring Harbor, N.Y.), pp. 433-466); plaque formation was assayed at 30° C. T4D0, a derivative of bacteriophage T4 (Zeilstra-Ryalls, J., Fayet, O., Baird, L. & Georgopoulos, C. (1993) J. Bacteriol. 175, 1134-1143), was used according to standard methods (Karam, J. D. (1994) Molecular biology of bacteriophage T4. (American Society for Microbiology, Washington, D.C.)); plaque formation was assayed at 37° C.

[3] = target: T1, heat- and dithiothreitol-denatured mtMDH (Sus scrofa, UniProt P00346); assay: In vitro refolding of denatured mtMDH; type: biochemical, pig; conditions: FIG. 7b
T1 construct: Boehringer-Mannheim); purchased Boehringer-Mannheim; host or cells: pig heart
T1 sequence (P00346 25-338): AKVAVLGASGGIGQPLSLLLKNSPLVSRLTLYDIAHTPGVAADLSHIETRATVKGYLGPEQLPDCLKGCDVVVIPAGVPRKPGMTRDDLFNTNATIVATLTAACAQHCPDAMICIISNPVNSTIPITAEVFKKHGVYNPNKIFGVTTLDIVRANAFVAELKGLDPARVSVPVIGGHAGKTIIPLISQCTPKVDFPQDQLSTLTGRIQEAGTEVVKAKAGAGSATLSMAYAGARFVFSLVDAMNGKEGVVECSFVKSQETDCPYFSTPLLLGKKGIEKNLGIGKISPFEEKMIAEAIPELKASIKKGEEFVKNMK
Procedure: In vitro Refolding Experiments.
Refolding assays of pig heart mitochondrial malate dehydrogenase (mtMDH; Boehringer-Mannheim) and aggregation protection were carried out essentially as described (Peres Ben-Zvi, A. P., Chatellier, J., Fersht, A. R. & Goloubinoff, P. (1998) Proc. Natl. Acad. Sci. U.S.A. 95, 15275-15280). The concentrations of MC7 used were between 8-16 μM (reporter to protomer).

HDJ-2/HSDJ: a human HSP40 homologue
proportion of cells with inclusions / inclusion formation [1]: did not modify inclusion formation | inclusion formation in COS-7 cells (COS-7 cells): increased inclusion formation

CC(=O)N[C@@H](CSC(=O)[C@]1([C@@H](O)C(C)C)NC(=O)[C@H](C)[C@@H]1O)C(=O)O [lactacystin]
proportion of cells with inclusions of mutant huntingtin exon 1 [2]: increased the proportion of cells with inclusions

B1: GroEL(191-376): monomeric minichaperone, apical domain of GroEL, residues 191 to 376 (protein, UniProt P0A6F5 191-376, looked up, fragment)
chain: EGMQFDRGYLSPYFINKPETGAVELESPFILLADKKISNIREMLPVLEAVAKAGKPLLIIAEDVEGEALATLVVNTMRGIVKVAAVKAPGFGDRRKAMLQDIATLTGGTVISEEIGMELEKATLEDLGQAKRVVINKDTTTIIDGVGEEAAIQGRVAQIRQQIEEATSDYDREKLQERVAKLAGGV
modifications: apical domain
Binding to GroES (GroES): did not detectably bind | Effect of over-expression on λ growth / plaque counts (bacteriophage λ): no effect on plaque counts | enhancing the refolding rate of mtMDH [3]: ineffective in enhancing the refolding rate
